Consider 30 compounds from patent US6239111A, “In vivo method of improving survival rate of brain neurons” (Wakunaga Pharmaceutical Co., Ltd., priority 1996, dated 2001).

One series concerns hippocampus neurons. Nature of the series: Inhibition of reduction in survival rate of rat embryonic hippocampus neurons in serum-free culture. The format is cell-based. To be noted: for viability at 1 µg/mL / viability at 0.1 µg/mL / viability at 0.01 µg/mL / viability at 0.001 µg/mL / viability at 0.0001 µg/mL: Rattus norvegicus, Neuron, 72 h, read-out: survival rate of neurons (control group taken as 100%); for viability at 1 µg/mL: 10^-6 g/ml; for inhibitory effect against reduction in survival rate of hippocampus neurons (in words): within the range of 1-1,000 ng/ml. The source says:
From a rat at the 18th day of pregnancy (having an 18-day old embryo) the uterus was aseptically removed under etherification, and the fetus was obtained. The whole brain was collected from the fetus. From the brain placed in an L-15 medium, the hippocampus was separated under a microscope and minced with a knife. […] The thus-isolated cells were suspended in Eagle's MEM medium supplemented with 10% fetal calf serum, and inoculated at a concentration of 4×10^4 cells/cm^2 into wells of a 48-well plate which had been coated with poly-L-lysin in advance. […] After three-days' additional incubation, the cells were fixed, stained, and the number of surviving cells in each well was counted.
When the survival rate of the neurons in the control group was taken as 100%: […]

In series [1] the test system is neurites of hippocampus cells. Nature of the series: Branching promotion effect on neurites of hippocampus cells. The format is cell-based, rat. To be noted: number of branches from the longest neurite, one and two days after addition, FIG. 1. As to the method:
The hippocampus cells obtained in a manner similar to that in Example 1 were incubated for 24 hours in a medium containing fetal calf serum, then for further 24 hours in a serum-free medium. Subsequently, compound (1-1) was added. When compound (1-1) was added, and at the times of one and two days after addition, photographs were taken of the same cells. The number of branches from the longest neurite was counted.

A short description of series [2]: Oral acute toxicity (LD50) in mice. The following applies: mouse, in vivo, oral administration.
Series [3] can be described thus: Oral acute toxicity (LD50) in rats. The following applies: rat, in vivo, oral administration.
[4] abbreviates: three days' incubation, serum-free medium.
Where [5] appears, read: 10^-7 g/ml, three days' incubation, serum-free medium.
Where [6] appears, read: 10^-8 g/ml, three days' incubation, serum-free medium.
The mark [7] stands for this setting: 10^-9 g/ml, three days' incubation, serum-free medium.
Setting [8] is: 10^-10 g/ml, three days' incubation, serum-free medium.

Where two headings read alike, the source gives them in different places.

`C=CC[S+]([O-])C[C@H](N)C(=O)O` (stereo partly drawn) [(1-2)]: the viability at 1 µg/mL in the series on hippocampus neurons (setting [4]) was in the range of 130 to 150%. Moreover, the viability at 0.1 µg/mL with hippocampus neurons (setting [5]) was in the range of 130 to 150%. Moreover, in the series with hippocampus neurons (setting [6]), the viability at 0.01 µg/mL fell in the range of 110 to 130%. The viability at 0.001 µg/mL in the series on hippocampus neurons (setting [7]) is 110 to 130%. The viability at 0.0001 µg/mL with hippocampus neurons (setting [8]) is 90 to 110%.

Turning to `C=CCS(=O)(=O)C[C@H](N)C(=O)O` [(1-3)], the viability at 1 µg/mL in the series on hippocampus neurons (setting [4]) lay in the range of 130 to 150%. Besides, the viability at 0.1 µg/mL in the series on hippocampus neurons (setting [5]) was in the range of 110 to 130%. In addition, the viability at 0.01 µg/mL with hippocampus neurons (setting [6]) lay within 110 to 130%. Moreover, the viability at 0.001 µg/mL with hippocampus neurons (setting [7]) was 110 to 130%.

Turning to `C=CCSSC[C@H](N)C(=O)O` [(1-4)], in the series on hippocampus neurons (setting [4]), the viability at 1 µg/mL lay within 90 to 110%. For the same compound, the viability at 0.1 µg/mL in the series with hippocampus neurons (setting [5]) was in the range of 130 to 150%. Further, the viability at 0.01 µg/mL in the series on hippocampus neurons (setting [6]) fell in the range of 110 to 130%. Besides, the viability at 0.001 µg/mL in the series on hippocampus neurons (setting [7]) was 90 to 110%. Further, the viability at 0.0001 µg/mL in the series on hippocampus neurons (setting [8]) fell in the range of 90 to 110%.

Turning to `C=CCSC[C@H](NC(C)=O)C(=O)O` [(1-5)], in the series on hippocampus neurons (setting [4]), the viability at 1 µg/mL is 110 to 130%. Moreover, the viability at 0.1 µg/mL in the series on hippocampus neurons (setting [5]) fell in the range of 110 to 130%. In the series with hippocampus neurons (setting [6]), the viability at 0.01 µg/mL was in the range of 110 to 130%. Besides, the viability at 0.001 µg/mL in the series on hippocampus neurons (setting [7]) lay in the range of 90 to 110%.

`C=CCSC[C@H](NC(=O)CC[C@H](N)C(=O)O)C(=O)O` [(1-6)]: the viability at 1 µg/mL in the series with hippocampus neurons (setting [4]) was 130 to 150%. In the series with hippocampus neurons (setting [5]), the viability at 0.1 µg/mL is 130 to 150%. Besides, the viability at 0.01 µg/mL in the series on hippocampus neurons (setting [6]) was 130 to 150%. Further, the viability at 0.001 µg/mL in the series with hippocampus neurons (setting [7]) is 90 to 110%. Moreover, in the series with hippocampus neurons (setting [8]), the viability at 0.0001 µg/mL was in the range of 90 to 110%.

`C=CCSC[C@H](NC(=O)CC[C@H](N)C(=O)O)C(=O)NCC(=O)O` [(1-7)]: the viability at 1 µg/mL in the series on hippocampus neurons (setting [4]) fell in the range of 130 to 150%. The viability at 0.1 µg/mL in the series on hippocampus neurons (setting [5]) fell in the range of 130 to 150%. In addition, the viability at 0.01 µg/mL with hippocampus neurons (setting [6]) was in the range of 90 to 110%. Besides, in the series on hippocampus neurons (setting [7]), the viability at 0.001 µg/mL was in the range of 90 to 110%. In addition, the viability at 0.0001 µg/mL in the series with hippocampus neurons (setting [8]) was 90 to 110%.

`C=CCSCC[C@H](N)C(=O)O` [(1-9)]: the viability at 1 µg/mL in the series with hippocampus neurons (setting [4]) is 90 to 110%. The viability at 0.1 µg/mL with hippocampus neurons (setting [5]) is 110 to 130%. Also, in the series with hippocampus neurons (setting [6]), the viability at 0.01 µg/mL fell in the range of 90 to 110%.

With `C=CCS` [(1-10)], in the series on hippocampus neurons (setting [4]), the viability at 1 µg/mL was in the range of 110 to 130%. In addition, the viability at 0.1 µg/mL in the series on hippocampus neurons (setting [5]) fell in the range of 110 to 130%. Further, the viability at 0.01 µg/mL with hippocampus neurons (setting [6]) was 110 to 130%. The viability at 0.001 µg/mL in the series with hippocampus neurons (setting [7]) was in the range of 90 to 110%. The viability at 0.0001 µg/mL in the series on hippocampus neurons (setting [8]) is 90 to 110%.

With `C=CCSCC=C` [(1-11)], the viability at 1 µg/mL in the series on hippocampus neurons (setting [4]) was in the range of 110 to 130%. Further, the viability at 0.1 µg/mL in the series on hippocampus neurons (setting [5]) lay in the range of 110 to 130%. Moreover, in the series with hippocampus neurons (setting [6]), the viability at 0.01 µg/mL lay in the range of 110 to 130%. Also, the viability at 0.001 µg/mL in the series on hippocampus neurons (setting [7]) lay in the range of 90 to 110%. Besides, the viability at 0.0001 µg/mL in the series on hippocampus neurons (setting [8]) was in the range of 90 to 110%.

As for `C=CCSSCC=C` [(1-12)], in the series on hippocampus neurons, the viability at 0.0001 µg/mL was in the range of 90 to 110%, the viability at 0.001 µg/mL lay within 90 to 110%, the viability at 0.01 µg/mL lay in the range of 110 to 130% and the viability at 0.1 µg/mL lay within 110 to 130%.

With `C=CCSC(CC(=O)O)C(=O)O` (stereo not drawn) [(1-13)], the viability at 1 µg/mL with hippocampus neurons (setting [4]) was in the range of 110 to 130%. Further, in the series with hippocampus neurons (setting [5]), the viability at 0.1 µg/mL lay in the range of 110 to 130%. The viability at 0.01 µg/mL with hippocampus neurons (setting [6]) was in the range of 90 to 110%.

Turning to `C=CCSc1ccccc1C(=O)O` [(1-14)], the viability at 1 µg/mL with hippocampus neurons (setting [4]) lay in the range of 110 to 130%. In addition, the viability at 0.1 µg/mL in the series with hippocampus neurons (setting [5]) is 110 to 130%. In addition, the viability at 0.01 µg/mL with hippocampus neurons (setting [6]) was 90 to 110%.

For the compound `C=CCSc1nc2ccccc2o1` [(1-15)], in the series with hippocampus neurons (setting [4]), the viability at 1 µg/mL is 110 to 130%. Also, the viability at 0.1 µg/mL with hippocampus neurons (setting [5]) lay within 110 to 130%. Also, the viability at 0.01 µg/mL in the series on hippocampus neurons (setting [6]) is 90 to 110%.

Broadly, the LD50 is the dose expected to kill half of the subjects tested. A low value points to greater toxicity. `C=CCSC[C@H](N)C(=O)O` [Compound (1-1)]: the “branching promotion effect on neurites” value in series [1] is “confirmed to have branching promotion effect on neurites”. Also, the LD50 in series [2] and in series [3] was ≥ 1000 mg/kg throughout. In the series on hippocampus neurons (setting [4]), the viability at 1 µg/mL fell in the range of 130 to 150%. For the same compound, the viability at 0.1 µg/mL in the series with hippocampus neurons (setting [5]) lay in the range of 130 to 150%. Besides, in the series on hippocampus neurons (setting [6]), the viability at 0.01 µg/mL was 110 to 130%. Besides, the viability at 0.001 µg/mL in the series on hippocampus neurons (setting [7]) is 110 to 130%. For the same compound, in the series on hippocampus neurons (setting [8]), the viability at 0.0001 µg/mL lay within 90 to 110%.

Take `N[C@@H](CS)C(=O)O` [L-cysteine, reference compound]: the “inhibitory effect against reduction in survival rate of hippocampus neurons (in words)” value (from here on “inhibitory effect against reduction”) with hippocampus neurons is listed as “No inhibitory effect”.

Take `C=CCNC(N)=O` [N-allyl urea, reference compound]: the “inhibitory effect against reduction” value in the series on hippocampus neurons is “No inhibitory effect”.

As to `C=CCOC(=O)[C@@H](N)CS` [O-allyl-L-cysteine, reference compound], the “inhibitory effect against reduction” value with hippocampus neurons was “No inhibitory effect”.

As for `CC=CSC[C@H](N)C(=O)O` [S-(1-propenyl)-L-cysteine, reference compound], the “inhibitory effect against reduction” value in the series on hippocampus neurons is listed as “No inhibitory effect”.

Regarding `C=CCCSC[C@H](N)C(=O)O` [S-(3-butenyl)-L-cysteine, reference compound], in the series on hippocampus neurons, the “inhibitory effect against reduction” value is reported as “No inhibitory effect”.

Regarding `CSC[C@H](N)C(=O)O` [S-methyl-L-cysteine, reference compound], in the series on hippocampus neurons, the “inhibitory effect against reduction” value is on record as “No inhibitory effect”.

In the case of `C[S+]([O-])C[C@H](N)C(=O)O` (stereo partly drawn) [S-methyl-L-cysteinesulfoxide, reference compound], the “inhibitory effect against reduction” value in the series on hippocampus neurons is “No inhibitory effect”.

Consider `C#CCSC[C@H](N)C(=O)O` [S-propargyl-L-cysteine, reference compound], for which the “inhibitory effect against reduction” value in the series with hippocampus neurons was “No inhibitory effect”.

Take `CCCSC[C@H](N)C(=O)O` [S-propyl-L-cysteine, reference compound]: the “inhibitory effect against reduction” value in the series with hippocampus neurons is reported as “No inhibitory effect”.

In the case of `C=CCO` [allyl alcohol, reference compound], in the series with hippocampus neurons, the “inhibitory effect against reduction” value is “No inhibitory effect”.

Take `C=CCNCC(=O)O` [allyl glycine, reference compound]: in the series on hippocampus neurons, the “inhibitory effect against reduction” value is “No inhibitory effect”.

`C=CCOCC=C` [diallyl ether, reference compound]: the “inhibitory effect against reduction” value in the series with hippocampus neurons is reported as “No inhibitory effect”.

Consider `CCCSSCCC` [dipropyldisulfide, reference compound], for which the “inhibitory effect against reduction” value in the series on hippocampus neurons is recorded as “No inhibitory effect”.

Regarding `CCCSCCC` [dipropylsulfide, reference compound], the “inhibitory effect against reduction” value in the series on hippocampus neurons is “No inhibitory effect”.

`C=CCc1ccc(O)c(OC)c1` [eugenol, reference compound]: in the series on hippocampus neurons, the “inhibitory effect against reduction” value is reported as “No inhibitory effect”.

In the case of `CCCSC[C@H](NC(=O)CC[C@H](N)C(=O)O)C(=O)O` [gamma-glutamyl-S-propyl-L-cysteine, reference compound], the “inhibitory effect against reduction” value in the series on hippocampus neurons is “No inhibitory effect”.
